Measured values reported in paper PMC11649397, “The study of halogen effect on the reactivity of the serine-targeting covalent warheads” (Frontiers in Chemistry, 2024).
Like-named read-outs stand apart in the source and are kept apart here.

Key:
hCES2A = biological target: T1, hCES2A (Homo sapiens, UniProt O00748); assay: Inhibition assay on hCES2A (fluorescent substrate FD); assay type: biochemical; conditions: for selective inhibitory activity on hCES2A: 10 μM, selectivity screening; for IC50: mean ± SD, n = 3
T1 sequence (O00748 27-559): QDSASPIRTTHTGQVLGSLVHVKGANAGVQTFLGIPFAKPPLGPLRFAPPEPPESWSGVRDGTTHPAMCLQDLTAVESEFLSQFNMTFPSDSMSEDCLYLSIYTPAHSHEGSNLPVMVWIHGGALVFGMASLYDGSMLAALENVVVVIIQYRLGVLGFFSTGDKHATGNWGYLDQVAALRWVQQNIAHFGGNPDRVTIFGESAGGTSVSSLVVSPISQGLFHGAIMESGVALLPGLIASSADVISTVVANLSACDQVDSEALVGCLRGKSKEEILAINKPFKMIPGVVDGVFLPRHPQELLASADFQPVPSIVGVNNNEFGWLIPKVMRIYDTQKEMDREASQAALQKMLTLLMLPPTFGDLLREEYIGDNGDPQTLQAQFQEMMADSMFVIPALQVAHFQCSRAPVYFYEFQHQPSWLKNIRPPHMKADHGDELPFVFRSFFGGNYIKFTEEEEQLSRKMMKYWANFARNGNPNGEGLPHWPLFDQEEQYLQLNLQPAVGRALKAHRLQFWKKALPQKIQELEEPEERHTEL
Experimental: (§1) 1. Detailed experimental, materials, and methods
(§2) The household library of covalent fragments including D and F was from Organic Chemistry […]
Fig. S1. Partial fragment molecules of a household library targeting to serine. […]
Inhibition assay on hCES2A
Human carboxylesterase 2 (hCES2A) inhibition assays were conducted using FD, a known fluorescent substrate. 3 Briefly, hCES2A (0.4 μg/mL, final concentration) was preincubated with analytes/DMSO (as a control group) in PBS (pH 7.4) at 37 °C for 3 min. This was followed by adding the substrate FD (4 μM, final concentration) in the incubation mixture and allowing it to react for 30 min. The fluorescent signals (excitation/emission, 480 nm/525 nm) were continuously recorded by a microplate reader (SpectraMax iD3Molecular Devices, Austria). […]

[1] = biological target: T2, human pancreatic lipase (hPL) (Homo sapiens, UniProt P16233); assay: Inhibition assay on human pancreatic lipase (substrate DDAO-ol); assay type: biochemical; conditions: 10 μM, selectivity screening
T2 sequence (P16233 17-465): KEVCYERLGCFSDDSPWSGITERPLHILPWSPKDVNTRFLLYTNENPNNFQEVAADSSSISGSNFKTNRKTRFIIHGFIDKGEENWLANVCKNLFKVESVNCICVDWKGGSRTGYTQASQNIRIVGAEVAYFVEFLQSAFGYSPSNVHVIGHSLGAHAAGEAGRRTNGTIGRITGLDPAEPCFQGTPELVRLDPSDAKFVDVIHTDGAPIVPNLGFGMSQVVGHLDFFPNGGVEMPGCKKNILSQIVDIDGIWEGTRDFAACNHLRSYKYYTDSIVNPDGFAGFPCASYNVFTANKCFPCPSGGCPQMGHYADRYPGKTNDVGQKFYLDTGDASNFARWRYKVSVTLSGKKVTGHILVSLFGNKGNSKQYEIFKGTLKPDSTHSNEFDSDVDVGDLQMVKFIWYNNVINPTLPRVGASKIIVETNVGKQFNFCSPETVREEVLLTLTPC
From the text: as §1, §2
Fig. S1. Partial fragment molecules of a household library targeting to serine.
Commercially available materials were ordered from commercial suppliers (Bidepharm, Shanghai, China) and used without further purification. Structures were checked by 1H- and 13C-NMR spectra on a Bruker AVANCE 600/125 MHz instrument for confirmation, using DMSO- d6 or CDCl 3 as the solvent. Molecular orbitals were calculated using Gaussian 09W and image generated by GaussView 6.0.1
Inhibition assay on hCES1A
In this study, a known bioluminogenic probe substrate NLMe was used for human carboxylesterase 1 (hCES1A) inhibition assays. […]
The luminescence signals were monitored in the microplate reader (SpectraMax iD3Molecular […]
Human carboxylesterase 2 (hCES2A) inhibition assays were conducted using FD, a known fluorescent substrate. […] The fluorescent signals (excitation/emission, 480 nm/525 nm) were continuously recorded by a microplate reader (SpectraMax iD3Molecular Devices, Austria). […]
fluorogenic probe. […] The fluorescent signals of hydrolytic product were quantified by using the microplate reader (Spectra Max M4, Austria), with the wavelength of 600 nm and 660 nm for excitation and emission, respectively. […]

Compound: O=C(c1ccccc1)C(F)(F)F [F, 2,2,2-trifluoroacetophenone]
- selective inhibitory activity on hCES2A (hCES2A): decent selective inhibitory activities
- IC50 (hCES2A; 3 min incubation, read-out: hCES2A IC50 3 min): 160 ± 18.4 nM
- time-dependent inhibition against hCES2A (hCES2A; 3 min vs 33 min incubation): no significant time-dependent inhibition
- IC50 (hCES2A; 33 min incubation, read-out: hCES2A IC50 33 min): 336 ± 37.2 nM
- response to hPL [1]: no potent responses

Compound: O=S(=O)(F)c1ccc(Br)cc1 [D, 4-bromobenzenesulfonyl fluoride]
- selective inhibitory activity on hCES2A (hCES2A): decent selective inhibitory activities
- response to hPL [1]: no potent responses
